We go through one molecule from US11572398B2, “GLP-1 derivatives and uses thereof” (Novo Nordisk A/S, priority 2014, dated 2023).

In series [1] the target is T1, human GLP-1 receptor (Homo sapiens, UniProt P43220).
T1 construct: expressed in transfected cells; host or cells: BHK cells (parent line BHKTS13), clone FCW467-12A; membrane preparation
In words: In vitro potency: CRE luciferase reporter gene assay in BHK cells expressing the human GLP-1 receptor. Format: cell-based. Conditions: whole cell reporter gene assay, BHK cells, human GLP-1 receptor; average of at least two replicates; read-out: EC50. A digest of the protocol: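 Whole-cell assay in stably transfected BHK cells carrying CRE-driven firefly luciferase, 5×10^3 cells/well, in assay buffer with 2% ovalbumin and 0.2% Pluronic F-68. Compound working solutions were 0.2 μM.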

Series [2] concerns the target T1, human GLP-1 receptor. In words: GLP-1 receptor binding: competitive binding assay (125I-GLP-1, SPA) on isolated membranes at low and high HSA.
The nature of series [3]: Pharmacokinetic study in minipigs (i.v.). The note with it: male, Göttingen, minipig, in vivo, iv, 2 nmol/kg.
Protocol: The purpose of this study is to determine the protraction in vivo of the GLP-1 derivatives after i.v. administration to minipigs, i.e. the prolongation of their time in the body and thereby their time of action. This is done in a pharmacokinetic (PK) study, where the terminal half-life of the derivative in question is determined. By terminal half-life is meant the time it takes to halve a certain plasma concentration in the terminal elimination phase.
Male Göttingen minipigs were obtained from Ellegaard Göttingen Minipigs (Dalmose, Denmark) approximately 7-14 months of age and weighing approximately 16-35 kg were used in the studies. The minipigs were housed either individually (pigs with permanent catheters) or in a group and fed restrictedly once or twice daily with SDS minipig diet (Special Diets Services, Essex, UK).
After at least 2 weeks of acclimatisation two permanent central venous catheters were implanted in vena cava caudalis or cranialis in each animal. The animals were allowed 1 week recovery after the surgery, and were then used for repeated pharmacokinetic studies with a suitable wash-out period between successive GLP-1 derivative dosings.
Blood samples (for example 0.8 ml) were collected in EDTA buffer (8 mM) and then centrifuged at 4° C. and 1942G for 10 minutes.
Plasma was pipetted into Micronic tubes on dry ice, and kept at −20° C. until analysed for plasma concentration of the respective GLP-1 compound using LOCI. Individual plasma concentration-time profiles were analyzed by a non-compartmental pharmacokinetic method in Phoenix v. 6.2 (Pharsight Inc., Mountain View, Calif., USA), or other relevant software for PK analysis, and the resulting terminal half-lives (harmonic mean) determined.

Like-named read-outs stand apart in the source and are kept apart here.

T1 sequence (P43220 24-463): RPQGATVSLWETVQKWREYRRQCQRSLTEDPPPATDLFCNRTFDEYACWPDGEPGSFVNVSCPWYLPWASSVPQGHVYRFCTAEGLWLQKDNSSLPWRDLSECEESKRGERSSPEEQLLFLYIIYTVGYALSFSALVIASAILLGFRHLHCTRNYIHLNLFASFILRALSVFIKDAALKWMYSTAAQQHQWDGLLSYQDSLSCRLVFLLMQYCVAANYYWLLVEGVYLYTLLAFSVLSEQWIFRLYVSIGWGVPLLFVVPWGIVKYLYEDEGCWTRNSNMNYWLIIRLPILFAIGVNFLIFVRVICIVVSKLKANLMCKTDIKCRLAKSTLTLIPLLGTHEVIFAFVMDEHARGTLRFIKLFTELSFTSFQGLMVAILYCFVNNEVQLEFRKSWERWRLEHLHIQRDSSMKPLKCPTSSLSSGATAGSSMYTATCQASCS

In the case of `CC[C@H](C)[C@H](NC(=O)[C@H](Cc1ccccc1)NC(=O)[C@H](CCC(=O)O)NC(=O)[C@H](CCCNC(=N)N)NC(=O)[C@H](C)NC(=O)[C@H](C)NC(=O)[C@H](CCC(N)=O)NC(=O)[C@H](CCC(=O)O)NC(=O)[C@H](CCC(=O)O)NC(=O)[C@H](CC(C)C)NC(=O)[C@H](Cc1ccc(O)cc1)NC(=O)[C@H](CO)NC(=O)[C@H](CO)NC(=O)[C@@H](NC(=O)[C@H](CC(=O)O)NC(=O)[C@H](CO)NC(=O)[C@@H](NC(=O)[C@H](Cc1ccccc1)NC(=O)[C@@H](NC(=O)CNC(=O)[C@H](CCC(=O)O)NC(=O)C(C)(C)NC(=O)[C@@H](N)Cc1c[nH]cn1)[C@@H](C)O)[C@@H](C)O)C(C)C)C(=O)N[C@@H](C)C(=O)N[C@@H](Cc1c[nH]c2ccccc12)C(=O)N[C@@H](CC(C)C)C(=O)N[C@H](C(=O)N[C@@H](CCCNC(=N)N)C(=O)NCC(=O)N[C@@H](CCCNC(=N)N)C(=O)N[C@@H](CCCCNC(=O)COCCOCCNC(=O)COCCOCCNC(=O)COCCOCCNC(=O)COCCOCCNC(=O)CN(CCCNC(=O)COCCOCCNC(=O)COCCOCCNC(=O)CC[C@H](NC(=O)[C@H]1CC[C@H](CNC(=O)CCCCCCCCCCCCCCCCCCC(=O)O)CC1)C(=O)O)CCCNC(=O)COCCOCCNC(=O)COCCOCCNC(=O)CC[C@H](NC(=O)[C@H]1CC[C@H](CNC(=O)CCCCCCCCCCCCCCCCCCC(=O)O)CC1)C(=O)O)C(=O)O)C(C)C` [Example 12], at human GLP-1 receptor [1], the EC50 is 0.02 nM. Also, the IC50 worked out at 0.51 nM at human GLP-1 receptor [2] (Low HSA IC50, low HSA (max. 0.001% final assay concentration)) and 25 nM at human GLP-1 receptor [2] (high HSA (2.0% final assay concentration), read-out: High HSA IC50). The half-life in series [3] was 137 h.
